Experimental findings from article PMC7321108, “1-Hydroxyanthraquinones Containing Aryl Substituents as Potent and Selective Anticancer Agents” (Molecules, 2020) are described below.

The test system of series [1] is SNB-19 glioblastoma cells. Briefly: MTT cytotoxicity assay, SNB-19. In kind it is cell-based. The note with it: Homo sapiens, 72 h incubation, mean ± SEM of three experiments, read-out: Cytotoxicity (GI50) against SNB-19. The procedure:
(§1) The cytotoxicity of the synthesized series of 4-substituted 5, 13–17, 22, 23, 2-substituted 25–30 and 2,4-disubstituted 1-hydroxy-9,10-anthraquinones 33–38, 40–45 was evaluated against a panel of seven different human cancer cell lines (glioblastoma cancer cells, human prostate cancer cells, T-cellular human leucosis, breast cancer cells) and also a normal cell line of hTERT-immortalized lung fibroblasts, using conventional MTT assay. Doxorubicin (DOX) is clinically used to treat cancer as drug in world and have a very wide antitumor spectrum. That we use them as positive control compounds. The cytotoxicity was determined by measuring the concentration inhibiting human tumor cell viability by 50% (GI50).
(§2) The human cancer cells of the glioblastoma (U-87MG, SNB-19, T98G), prostate cancer cell line (LNCAP, DU-145), the cells of T-cellular human leucosis (MT-4) and human breast cancer cells (MDA-MB-231) were used in this study. The cells were cultured in the RPMI-1640 medium that contained 10% embryonic calf serum, L-glutamine (2 mmol/L), gentamicin ([…]) and lincomycin (30 mkg/mL) in a CO2 incubator at 37 °C. The tested compounds were dissolved in DMSO and added to the cellular culture at the required concentrations. Three wells were used for each concentration. The cells which were incubated without the compounds were used as a control. Cells were placed on 96-well microliter plates and cultivated at 37 °C in 5% CO2/95% air for 72 h. The cell viability was assessed through an MTT [3-(4,5-dimethylthiazol-2-yl)-[…]-2H-tetrazolium bromide] conversion assay. A total of 1% MTT was added to each well. Four hours later, DMSO was added and mixed for 15 min. Optical density (D) of the samples was measured on a BioRad 680 multi-well spectrophotometer (USA) at the wavelength of 450 nm. The 50% cytotoxic dose GI50) of each compound (i.e., the compound concentration that causes the death of 50% of cells in a culture, or decreases the optical density twice as compared to the control wells) was calculated from the data obtained. Statistical processing of the results was performed using the Microsoft Excel-2007, […] 6.0 and GraphPad Prism 5.0 programs. The results are given as an average value ± a deviation from the average (mean ± standard error of the mean (SEM)). Reliability of differences (p) was estimated using the Student t test. The differences with p < 0.05 were considered as reliable. The experimental results are given as the data average values obtained from three independently conducted experiments.

For series [2], the system named is U-87MG glioblastoma cells. Description: MTT cytotoxicity assay, U-87MG. The conditions noted are these: Homo sapiens, 72 h incubation, mean ± SEM of three experiments, read-out: Cytotoxicity (GI50) against U-87MG. The class given is cell-based. The procedure: as §1, §2
A further series concerns T98G glioblastoma cells. Description: MTT cytotoxicity assay, T98G. The class given is cell-based. The conditions noted are these: Homo sapiens, 72 h incubation, mean ± SEM of three experiments, read-out: Cytotoxicity (GI50) against T98G. As to the method: as §1, §2
In series [3] the test system is LNCAP prostate cancer cells. Briefly: MTT cytotoxicity assay, LNCAP. In kind it is cell-based, human. The note with it: Homo sapiens, LNCaP, 72 h, 72 h incubation, mean ± SEM of three experiments, read-out: Cytotoxicity (GI50) against LNCAP. The procedure:
as §1, §2

Series [4] concerns DU-145 prostate cancer cells. Description: MTT cytotoxicity assay, DU-145. In kind it is cell-based, human. The note with it: Homo sapiens, DU-145, 72 h, 72 h incubation, mean ± SEM of three experiments, read-out: Cytotoxicity (GI50) against DU-145. The procedure:
as §1, §2

The test system of series [5] is MT-4 cells of T-cellular human leucosis. Briefly: MTT cytotoxicity assay, MT-4. In kind it is cell-based. The note with it: MT4, 72 h incubation, mean ± SEM of three experiments, read-out: Cytotoxicity (GI50) against MT-4. The procedure:
as §1, §2

Series [6] relates to MDA-MB-231 breast cancer cells. Briefly: MTT cytotoxicity assay, MDA-MB-231. The class given is cell-based. The note with it: Homo sapiens, 72 h incubation, mean ± SEM of three experiments, read-out: Cytotoxicity (GI50) against MDA-MB-231. As to the method: as §1, §2
Series [7] is described as follows: MTT cytotoxicity assay, normal hTERT-immortalized lung fibroblasts. The class given is cell-based. The note with it: human, hTERT-immortalized lung fibroblasts (normal cell line), 72 h incubation, mean ± SEM of three experiments, read-out: Cytotoxicity (GI50) against hTERT Lung Fibroblasts. The procedure: as §1, §2

Take `COc1cc(-c2ccc(O)c3c2C(=O)c2ccccc2C3=O)cc(OC)c1OC` [Compound 5, 1-Hydroxy-4-(3,4,5-trimethoxyphenyl)anthracene-9,10-dione]: the melting point is 230.5 °C (dec.). The GI50 in series [1] worked out at 6.7 ± 0.47 µM. The GI50 in series [2] is above 100 µM. Further, the GI50 in the series on T98G glioblastoma cells was found to be 72.5 ± 3.21 µM. Moreover, the GI50 in series [3] is 21.1 ± 0.85 µM. For the same molecule, the GI50 in series [4] was 14.8 ± 0.52 µM. In addition, in series [5], the GI50 was determined as 42 ± 4.14 µM. The GI50 in [6] stood at 28.6 ± 1.24 µM. The GI50 at 72 h in [7] came out at 28.6 ± 4.54 µM.
In the case of `Cc1ccccc1-c1ccc(O)c2c1C(=O)c1ccccc1C2=O` [Compound 14, 1-Hydroxy-4-(o-tolyl)anthracene-9,10-dione], the GI50 in [1] is 38.1 ± 1.15 µM; in series [2], above 100 µM; with T98G glioblastoma cells it was above 100 µM; in series [3], 92 ± 3.93 µM; in series [4] it was 41.1 ± 3.34 µM; in [5], 65 ± 5.49 µM. For the same molecule, in [6], the GI50 was above 100 µM. For the same molecule, the GI50 at 72 h in [7] is above 100 µM.
With `O=C1c2ccccc2C(=O)c2c(-c3cc(F)cc(F)c3)ccc(O)c21` [Compound 17, 1-(3,5-Difluorophenyl)-4-hydroxyanthracene-9,10-dione], the melting point was 214.2 to 214.3 °C. In addition, the GI50 in series [1] was determined as 10.2 ± 0.86 µM. In series [2], the GI50 amounted to 8.2 ± 1.35 µM. Moreover, in the series with T98G glioblastoma cells, the concentration for 50% growth inhibition (GI50) stood at 9.2 ± 0.56 µM. In addition, the 50% growth inhibitory concentration (GI50) in series [3] was 16.7 ± 1.34 µM. For the same molecule, the GI50 in series [4] stood at 3.5 ± 0.96 µM. In series [5], the GI50 came to 38.3 ± 3.16 µM. Further, the GI50 in [6] is 9.6 ± 0.69 µM. Besides, in [7], the GI50 at 72 h was 26.6 ± 2.44 µM.
In the case of `O=C1c2ccccc2C(=O)c2c(-c3cc(C(F)(F)F)ccc3Cl)ccc(O)c21` [Compound 18, 1-(2-Chloro-5-(trifluoromethyl)phenyl)-4-hydroxyanthracene-9,10-dione], the melting point is 184.3 °C (dec.).
`O=C1c2ccccc2C(=O)c2c(-c3ccc(Cl)cc3C(F)(F)F)ccc(O)c21` [Compound 19, 1-(4-Chloro-2-(trifluoromethyl)phenyl)-4-hydroxyanthracene-9,10-dione]: the melting point is 186 °C (dec.).
In the case of `O=C1c2ccccc2C(=O)c2c(-c3ccco3)ccc(O)c21` [Compound 22, 1-(Furan-2-yl)-4-hydroxyanthracene-9,10-dione], the melting point was 141.8 °C (dec.). Further, the GI50 in series [1] was above 100 µM. Also, the GI50 in [2] is above 100 µM. Also, the GI50 with T98G glioblastoma cells is above 100 µM. In series [3], the GI50 came to 21.1 ± 0.85 µM. Besides, in series [4], the GI50 is 24.2 ± 1.32 µM. Further, in [5], the GI50 was above 100 µM. The GI50 in [6] is above 100 µM. Further, the GI50 at 72 h in series [7] was determined as 52.2 ± 8.01 µM.
On to `COc1cc(-c2ccc3c(c2O)C(=O)c2ccccc2C3=O)cc(OC)c1OC` [Compound 24, 1-Hydroxy-2-(3,4,5-trimethoxyphenyl)anthracene-9,10-dione], for which the melting point was 190.1 °C (dec.).
As for `Cc1ccccc1-c1ccc2c(c1O)C(=O)c1ccccc1C2=O` [Compound 26, 1-Hydroxy-2-(o-tolyl)anthracene-9,10-dione], the melting point was 148.5 °C (dec.). In [1], the GI50 was above 100 µM. The GI50 in series [2] is above 100 µM. Moreover, in the series on T98G glioblastoma cells, the GI50 was above 100 µM. Moreover, the GI50 in series [3] was determined as 74 ± 3.74 µM. In addition, the GI50 in series [4] was determined as 70.2 ± 1.47 µM. Further, in series [5], the GI50 worked out at 80 ± 5.21 µM. For the same molecule, the GI50 in series [6] is above 100 µM. Further, the GI50 at 72 h in [7] was found to be 87.5 ± 9.11 µM.
Take `O=C1c2ccccc2C(=O)c2c1ccc(-c1cc(F)cc(F)c1)c2O` [Compound 29, 2-(3,5-Difluorophenyl)-1-hydroxyanthracene-9,10-dione]: the melting point was 264.3 °C (dec.). Also, in series [1], the GI50 amounted to 15.3 ± 0.71 µM. In addition, in series [2], the GI50 was 34.1 ± 2.18 µM. The GI50 with T98G glioblastoma cells is 29.6 ± 2.21 µM. The GI50 in [3] is 36.2 ± 2.05 µM. Further, the GI50 in series [4] amounted to 13.8 ± 1.05 µM. The GI50 in [5] was determined as 36.6 ± 1.68 µM. The GI50 in series [6] turned out to be 35.2 ± 1.88 µM. Also, the GI50 at 72 h in [7] turned out to be 28.1 ± 2.12 µM.
In the case of `O=C1c2ccccc2C(=O)c2c1ccc(-c1cc(C(F)(F)F)ccc1Cl)c2O` [Compound 30, 2-(2-Chloro-5-(trifluoromethyl)phenyl)-1-hydroxyanthracene-9,10-dione], the melting point is 188.5 °C (dec.). Also, in [1], the GI50 amounted to 16.8 ± 2.11 µM. Further, in [2], the GI50 is 21.6 ± 1.42 µM. Moreover, in the series on T98G glioblastoma cells, the GI50 is 39.2 ± 1.65 µM. For the same molecule, the GI50 in [3] was above 100 µM. In addition, in series [4], the GI50 turned out to be 12.5 ± 3.17 µM. Also, in series [5], the GI50 worked out at 55.1 ± 3.24 µM. Moreover, the GI50 in [6] came to 39.1 ± 1.71 µM. Further, the GI50 at 72 h in [7] was found to be 25.6 ± 5.24 µM.
Turning to `COc1cc(-c2cc(-c3cc(OC)c(OC)c(OC)c3)c3c(c2O)C(=O)c2ccccc2C3=O)cc(OC)c1OC` [Compound 32, 1-Hydroxy-2,4-di-(3,4,5-trimethoxyphenyl)anthracene-9,10-dione], the melting point was 214.9 °C (dec.).
Turning to `O=C1c2ccccc2C(=O)c2c(O)c(-c3ccccc3)cc(-c3ccccc3)c21` [Compound 33, 1-Hydroxy-2,4-diphenylanthracene-9,10-dione], the melting point lay in the range of 225 to 228 °C. The GI50 in series [1] turned out to be 18.3 ± 1.12 µM. For the same molecule, the GI50 in series [2] turned out to be 56.8 ± 2.36 µM. Also, in the series on T98G glioblastoma cells, the GI50 is 24.6 ± 0.85 µM. For the same molecule, the GI50 in series [3] is 21.3 ± 1.16 µM. Also, the GI50 in series [4] was above 100 µM. In [5], the GI50 is above 100 µM. The GI50 in series [6] is 28.3 ± 1.06 µM. The GI50 at 72 h in series [7] worked out at 52.8 ± 8.05 µM.
Take `Cc1ccccc1-c1cc(-c2ccccc2C)c2c(c1O)C(=O)c1ccccc1C2=O` [Compound 34, 1-Hydroxy-2,4-di-o-tolylanthracene-9,10-dione]: the melting point is 119.8 °C (dec.). For the same molecule, the GI50 in series [1] was above 100 µM. In series [2], the GI50 was above 100 µM. Further, the GI50 in the series on T98G glioblastoma cells is above 100 µM. Moreover, the GI50 in series [3] is above 100 µM. In addition, the GI50 in [4] was above 100 µM. Moreover, the GI50 in series [5] was above 100 µM. In series [6], the GI50 is above 100 µM. The GI50 at 72 h in series [7] was found to be 72.2 ± 4.18 µM.
Take `O=C1c2ccccc2C(=O)c2c(O)c(-c3cc(C(F)(F)F)ccc3Cl)cc(-c3cc(C(F)(F)F)ccc3Cl)c21` [Compound 38, 2,4-Di-(2-chloro-5-(trifluoromethyl)phenyl)-1-hydroxyanthracene-9,10-dione]: the concentration for 50% growth inhibition (GI50) in series [1] is 39.4 ± 2.16 µM; in series [2] it was above 100 µM; in the series with T98G glioblastoma cells, 7.8 ± 0.56 µM; in [3], above 100 µM; in series [4], 6.5 ± 0.89 µM; in series [5], above 100 µM. For the same molecule, the GI50 in series [6] worked out at 32.5 ± 5.37 µM. Besides, in [7], the GI50 at 72 h worked out at 19.4 ± 0.97 µM.
As for `O=C1c2ccccc2C(=O)c2c(O)c(-c3ccc(Cl)cc3C(F)(F)F)cc(-c3ccc(Cl)cc3C(F)(F)F)c21` [Compound 39, 2,4-Di-(4-Chloro-2-(trifluoromethyl)phenyl)-1-hydroxyanthracene-9,10-dione], the melting point is 150 to 152 °C.
Regarding `COc1ccc(-c2cc(-c3cc(OC)c(OC)c(OC)c3)c(O)c3c2C(=O)c2ccccc2C3=O)cc1` [Compound 44, 1-Hydroxy-4-(4-methoxyphenyl)-2-(3,4,5-trimethoxyphenyl)anthracene-9,10-dione], the GI50 in series [1] was 41.8 ± 5.27 µM; in series [2], above 100 µM; in the series on T98G glioblastoma cells, 16.5 ± 1.26 µM; in [3], 14.2 ± 3.12 µM; in [4], 15.2 ± 1.06 µM; in [5], 40.5 ± 6.44 µM. In addition, in [6], the GI50 worked out at 19.1 ± 0.98 µM. Moreover, in series [7], the GI50 at 72 h worked out at 36.2 ± 1.31 µM.
